Source: the NIST ThermoML archive (doi:10.1021/je8008182)
Values joined by “and” are separate entries in the source; they are usually repeats but may differ in a detail not shown here. Equal entries are not always repeated.

Experiments:
[1] = Liquid; for mass density: Pycnometric method; for viscosity: Capillary tube (Ostwald / Ubbelohde) method
[2] = wn = mass fraction of the nth substance listed; details: 101 kPa, Liquid, w1 = 0.2; for mass density: Pycnometric method; for viscosity: Capillary tube (Ostwald / Ubbelohde) method
[3] = xn = mol fraction of the nth substance listed; details: 101 kPa, Liquid, x2 = 0; for viscosity: Capillary tube (Ostwald / Ubbelohde) method; for mass density: Pycnometric method

Cc1ccncc1 [4-methylpyridine]
[1]
Details	mass density, 101 kPa	mass density, 101.33 kPa [kg/m3]	viscosity, 101 kPa [mPa·s]	viscosity, 101.33 kPa [mPa·s]
283.15 K	958.2 kg/m3	958.2	–	–
293.15 K	955.1 kg/m3	955.1	–	–
298.15 K	955.4 kg/m3 and 951.1 kg/m3	951.1	–	0.8723
303.15 K	951.1 kg/m3	–	0.8175	–
308.15 K	941.3 kg/m3	–	0.7774	–
313.15 K	936.6 kg/m3	–	0.7368	–
318.15 K	932.1 kg/m3	–	0.6855	–
323.15 K	927.7 kg/m3	–	0.6505	–
328.15 K	923.2 kg/m3	–	0.5905	–
333.15 K	918.5 kg/m3	–	0.5329	–
338.15 K	914 kg/m3	–	0.4815	–

O=S(=O)(O)O [sulfuric acid] + O
[2]
Details	mass density [kg/m3]	viscosity [mPa·s]
283.15 K	1145	–
293.15 K	1139.6	1.543
298.15 K	1136.4	–
303.15 K	1133.7	1.21
313.15 K	1127.8	0.987
323.15 K	1121.9	0.824
333.15 K	1115.7	0.716
343.15 K	1108.9	0.638

O [water]
[1], 101 kPa
Details	mass density [kg/m3]	viscosity [mPa·s]
298.15 K	–	0.8903
303.15 K	–	0.7973
308.15 K	–	0.719
313.15 K	–	0.6526
318.15 K	–	0.5972
323.15 K	988	0.5468
328.15 K	985.7	0.5042
333.15 K	983.2	0.4669
338.15 K	980.6	0.4341

O [water] + Cc1ccncc1
[3]
Details	mass density [kg/m3]	viscosity [mPa·s]
298.15 K	–	0.8903
303.15 K	–	0.7973
308.15 K	–	0.719
313.15 K	–	0.6526
318.15 K	–	0.5972
323.15 K	988	0.5468
328.15 K	985.7	0.5042
333.15 K	983.2	0.4669
338.15 K	980.6	0.4341
